In one assay the target is T1, Aβ42 oligomers (Homo sapiens, UniProt P05067).
T1 construct: gene APP; commercial Abeta(1-42) peptide, cut from APP precursor; soluble oligomers prepared via HFIP/water, stirred 24-48 h at ~22 °C, confirmed by TEM
Briefly: fluorescence titration, one-site binding regression. To be noted: read-out: Aβ oligomers / Kd. An excerpt:
fluorescence titration, one-site binding regression on Aβ42 oligomers

In another assay the target is T2, Aβ42 monomers (Homo sapiens, UniProt P05067).
T2 construct: gene APP; commercial Abeta(1-42) peptide (Nanjing Peptide Biotech), cut from APP precursor; monomer stock in hexafluoroisopropanol
Described as above. The settings on record: read-out: Aβ monomers / Kd. The source says:
fluorescence titration, one-site binding regression on Aβ42 monomers

T2 sequence (P05067 672-713): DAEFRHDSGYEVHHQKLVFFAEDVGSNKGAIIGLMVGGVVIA
T1 sequence (P05067 672-713): as above

Take `CN(C)c1ccc2cc(/C=C/C3=CC(/C=C/C=C4N(C)c5ccccc5C4(C)C)=[O+][B-](F)(F)O3)ccc2c1` [compound 7, probe 7]: the Kd came to 167 ± 19.9 nM at Aβ42 oligomers and 64.2 ± 5.38 nM at Aβ42 monomers.

For the origin of these results see paper PMC9065200, “Engineering of donor-acceptor-donor curcumin analogues as near-infrared fluorescent probes for in vivo imaging of amyloid-β species” (Theranostics, 2022).
